Measurements from US20030157197A1, “PLANT-DERIVED ANTI-PARASITIC AND ANTIFUNGAL COMPOUNDS AND METHODS OF EXTRACTING THE COMPOUNDS” (priority 1998, published 2003).
Values after ≈ are worked out from the molar mass of the structure shown. Where two headings read alike, the source gives them in different places.

Assays:
[1] = system: Enterocytozoon cuniculi; design: dose or concentration left out as unconfirmed; details: cited from earlier work
[2] = system: RK13 cells; design: dose or concentration left out as unconfirmed; details: cited from earlier work
[3] = system: Plasmodium falciparum Indochina (W-2) clone; assay: in vitro antimalarial assay, [3H]hypoxanthine uptake, W-2 clone; type: cell-based; details: chloroquine-resistant
Description: (§1) The in vitro antimalarial assays were performed by using a modification of the semi-automated microdilution technique described earlier (Desjardins et al., 1979, Milhous et al., 1985). Two Plasmodium falciparum malaria parasite clones, designated Indochina (W-2) and Sierra Leone (D-6), were utilized in susceptibility testing. The W-2 clone is resistant to chloroquine, pyrimethamine, sulfadoxine, and quinine, and the D-6 clone is resistant to mefloquine.
(§2) The test extracts/compound, was dissolved in DMSO and serially diluted using malarial growth medium. Drug-induced reduction in uptake of titriated hypoxanthine was used as an index of inhibition of parasite growth.

[4] = system: Leishmania (Leishmania) chagasi, MHOM/BR/84/BA-13 promastigotes; assay: in vitro radiorespirometric microtest (RAM), antileishmanial; type: cell-based; details: for respiration / metabolic rate for 14C-substrates: 50 μg/ml for 96 h, versus vehicle control
Description: An in vitro radiorespirometric microtest (RAM) technique was used to evaluate the extracts/fractions or pure compounds for possible antileishmanial activity. This method, as already noted, relies on drug inhibition of parasite production of ^14CO2 from a battery of ^14C-substrates by promastigotes to detect drug-mediated parasite damage at low drug concentration within a short time. The test is quantitative, rapid, consistent, and is conducted in serum-free medium in which prior adaptation is not necessary to cultivate the so-called “difficult to grow” species.
A clinical isolate of visceral Leishmania (Leishmania) chagasi, MHOM/BR/84/BA-13, was used for this study. This isolate was selected because sensitivity to SbV was previously determined using RAM.
All ^14C-substrates were selected with specific activities as close to 40 mCi mM^−1 per carbon atom as obtainable from commercial sources.
The procedure was conducted as previously described (Jackson et al., 1989, 1990). Promastigotes were maintained in log phase growth for 3 successive transfers (48-72 h apart) prior to radiorespirometric (RAM) testing. Test samples (or PBSS, 0.1 M phosphate-buffered balanced salt solution, plus drug solvent, DMSO, for parallel control cultures) was added 24 h after the third promastigote transfer to fresh growth medium. Incubation in the presence of plant samples was continued for 96 additional hours while the parasites remained in mid-log phase growth. The test sample was tested at 50 μg ml^−1. Drug sensitivity or resistance was based on ^14C-substrate(s) (listed in Table 1) for which ^14CO2 release was decreased for drug-treated parasites compared to parallel tests of phosphate-buffered balanced salt solution and vehicle (PBSS+DMSO) controls. Each experiment consisted of parallel: (a) duplicate tests of drug-treated parasites; plus (b) duplicate tests of drug vehicle control-treated parasites; plus (c) one “nonbiological” sterility control. The nonbiological control consisted of each ^14C-substrate (one substrate per microtiter tray well), and PBSS (the same PBSS batch used to wash, to suspend the parasites, and to make drug solution). Since there were no parasites in the nonbiological control, any ^14CO2 detected was attributed either to biologic contamination (or, less likely, chemical contamination) of the ^14C-substrates resulting in breakdown of the ^14C-substrates. If radioactivity above background (10 dpm) was detected in the nonbiological control, the suspect solution(s) was replaced and the experiment was repeated.

[5] = system: Plasmodium falciparum Sierra Leone (D-6) clone; assay: in vitro antimalarial assay, [3H]hypoxanthine uptake, D-6 clone; type: cell-based; details: chloroquine-susceptible
Description: as §1, §2

[6] = system: Cladosporium cucumerinum; assay: TLC bioautographic antifungal test; type: cell-based; details: TLC plate sprayed with spore suspension
Description: A method similar to that of Homans and Fuchs (1970) was employed. This technique involves direct spraying of thin layer chromatograms with conidial suspensions of a test organism. About 100 μg of extract was spotted on silica gel TLC plates and developed with suitable solvent system. Dried plates were separately sprayed with either a spore suspension of Cladosporium cucumerinum, and subsequent plates with spore suspensions of Cladosporium carrionii, Cladosporium cladosporioides, Cladosporium tennuisimum (ATCC 623337) and Fonsecaea pedrosoi (ATCC 52593), in some cases to determine the spectrum of activity. The plates were then incubated in sealed humid chambers at room temperature for four days in the dark. […] The powdered rhizome of A. danellii (200 g)was continously extracted with petroleum ether (bp 40-60° C.) to exhaustion in as soxhlet extractor. The petroleum ether extracts when combined and concentrated to dryness in vacuo gave a reddish brown residue (11.41 g). The air dried marc from the above extract was again extracted with ethanol in a soxhlet extractor, extracts were concentrated to dryness under reduce pressure using the rotary evaporator at 40° C. Both extracts were tested for antifungal activity using bioautography (TLC-bioassay) as described above. […]

[7] = human; cited from earlier work
[8] = system: Trypanosoma brucei brucei Lab 110 EATRO and Trypanosoma brucei rhodesiense KETRI 243, 269, 243 As-10-3; assay: in vitro trypanosome screen, bloodstream trypomastigotes; type: cell-based; details: for IC50: Trypanosoma brucei, RHODESIENSE; for fold increase in activity: versus primary extract / related species
Description: The in vitro activity of 39 plant extracts was tested against four strains of animal or human-pathogenic African trypanosomes, and three strains of mammalian-pathogenic Trichomonas spp. The trypanosomes studied were Trypanosoma brucei brucei Lab 110 EATRO, which is pathogenic to cattle and other livestock, and several strains of Trypanosoma brucei rhodesiense, a parasite of humans, domestic and wild animals. Strains of T. b. rhodesiense included drug resistant clinical isolates KETRI 243 and 269 and KETRI 243 As-10-3, a highly melarsen- and diamidine-resistant clone of KETRI 243. The 39 extracts were tested in an in vitro screen using a semi-defined medium for growth of bloodstream trypomastigotes at 37° C. (Hirumi & Hirumi, 1989) to determine IC50 values (Bacchi et al., 1996). Of these, 10 had IC50values at or below 10 μg/ml and were considered sufficiently active to warrant testing of more purified extracts. Of the four secondary extracts supplied, one, aulacocarpin (III) (SU1460), derived from the primary extract SU787 of A. aulocacarpus featured a 10-15 fold increase in activity. […] Eight additional primary extracts were also tested in the trypanosome screen (Table 3). […] Aulocacarpin (III) is an extract from Aframonum aulocacarpus and has the following formula: [drawing 3]

[9] = Plasmodium falciparum, read-out: IC50
[10] = previously determined using RAM

CCNCCCNCCCNCCCNCC [1,11-diethylnorspermine]
effect on parasite culture [1]: sterilize the culture
toxicity to feeder layer RK13 cells [2]: without toxicity

CCNCCCCNCCCCNCCCCNCCCCNCC [1,19-bis(ethylamino)5,10,15-triazanonadecane]
effect on parasite culture [1]: sterilize the culture
toxicity to feeder layer RK13 cells [2]: without toxicity

C=C1CC[C@H]2C(C)(C)CCC[C@]2(C)[C@H]1C/C=C(/C=O)CC=O [Labda-8(17),12-diene-15,16-dial, labda-8(17),12-diene-15,16-dial]
IC50 [3]: 0.28018 µg/mL (≈ 0.926 µM)
concentration inhibiting Leishmania promastigotes [4]: ≤ 50 µg
inhibition of growth of the leishmania strain ([4]; 50 μg/ml): completely inhibited
respiration / metabolic rate for 14C-substrates [4]: markedly reduced respiration
respiration / metabolic rate for 14C-substrates ([4]; listed as labdane-dial): near zero
parasite viability in culture ([4]; after a 96 hr incubation): no live parasites were observed
IC50 [5]: 0.09666 µg/mL (≈ 0.32 µM)
lowest concentration giving a clearly visible inhibition zone [6]: 0.5 µg

Nc1nc(N)nc(Nc2ccc([As]3SCC(CO)S3)cc2)n1 (stereo not shown) [Melarsoprol, melarsoprol]
incidence of cerebral episodes [7]: 3-5%

COC(=O)C(CC[C@H]1C2(CCC3C(C)(C)[C@@H](O)CC[C@@]31C)CO2)C1CO1 (stereo partly shown) [SU1460, aulacocarpin]
IC50 [8]: 0.86 µg/mL (≈ 2.35 µM)
fold increase in activity [8]: 10-15 fold

COc1cc(O)c2c(c1)O[C@H](c1ccc(O)cc1)CC2=O [Sakuranetin]
IC50 [3, 9]: 0.17 µg/mL (≈ 0.594 µM)
antileishmanial activity ([4]; in vitro): strongest antileishmanial activity
IC50 [5, 9]: 0.124 µg/mL (≈ 0.433 µM)

CC1(C)CCC[C@@]2(C)[C@H]1CC[C@@]1(CO1)[C@@H]2C/C=C(/C=O)CC=O [aframodial]
IC50 [8]: 0.86 µg/mL (≈ 2.7 µM)
fold increase in activity [8]: 10-11 fold

sodium antimony gluconate [Pentostam, reference compound]
concentration at which the isolate is sensitive, as Sb [4, 10]: 6 μg ml^−1 Sb
concentration at which the isolate is sensitive, as drug [4, 10]: 20 μg ml^−1 drug
